From patent publication US7402600B2, “Nitroderivatives of cardiovascular agents” (NicOx S.A., priority 1999, dated 2008) come the findings set out here.

Data set [1] relates to gastric mucosa. Description: Example F7: gastric tolerability after oral administration in NEM-treated rats. Type of data set: in vivo. The following applies: rats all receiving NEM, p.o., 0.02 mmoles/Kg of each component. As to the method: Example F1 was repeated with four groups of rats (each group of ten animals), all of them receiving NEM, and orally administered as it follows: • a. control group: the vehicle formed of an aqueous suspension 1% w/v of carboxymethylcellulose, • b. one group (group b—comparative) administered at the same time with 5 mg/Kg (0.02 mmoles/Kg) of flurbiprofen+2.7 mg/Kg (0.02 mmoles/Kg) of 4-thiazolidin carboxilic acid in the same above vehicle, • c. one group (group c—comparative) administered at the same time with 7.4 mg/Kg (0.02 mmoles/Kg) of 4-(nitroxy)butyl ester of flurbiprofen, synthetized according to the method described in WO 94/12463, +2.7 mg/Kg (0.02 mmoles/Kg) of 4-thiazolidin carboxilic in the same above vehicle, • d. one group (group d) administered with 9.8 mg/Kg (0.02 mmoles/Kg) of 3-[2-fluoro-α-methyl-(1,1′-biphenyl)-4-acetyl]thiazolidin-4-carboxylic acid 4-(nitroxy)butyl ester synthetized as from Ex. 1(indicated as NO-Flurbiprofen in Table VII), in the above same vehicle.

The subject of data set [2] is rats. The experiment in a line: in vivo. To be noted: rats not treated with NEM, single dose, s.c. As to the method:
(§1) The animals are sacrificed after 24 hours and then one proceeds to the evaluation of the damage to the gastrointestinal mucosa.

Data set [3] relates to gastrointestinal mucosa. The experiment in a line: Test 1 (NEM): gastric tolerability of precursor drugs in rats treated or not with N-ethylmaleimide. To be noted: rats, sacrifice after 24 hours. As to the method:
The animals (rats) are distributed in the following groups (no. 10 animals for group):
• 1° group: treatment: only carrier (aqueous suspension 1% w/v of carboxymethylcellulose, dose: 5 ml/Kg when the drug is administered by os, or a physiologic solution when parenterally administered, i.e. by subcutaneous, intraperitoneal, intravenous or intramuscular route), • 2° group: treatment: carrier as above defined+NEM, B) Groups Treated with the Drug: • group I: treatment: carrier+drug, • group II: treatment: carrier+drug+NEM.
The administration routes are those known for the drug, and can be the oral or subcutaneous, intraperitoneal, intravenous or intramuscular route.
as §1
Test 1—Experimental Model in Vivo with N-ethylmaleimide (NEM): Study of the Gastric Tolerability of Some Drugs Screened as Precursors of the Compounds of the Invention.
The animals (rats, weight about 200 g) are distributed in the following groups (No. 10 animals for group):
• 1° group: treatment: only carrier (aqueous suspension 1% w/v of carboxymethylcellulose, dose: 5 ml/Kg when the drug is administered by os, physiologic solution when by parenteral route), • 2° group: treatment: carrier+NEM B) Groups Administered with Each Drug: • group I: treatment: carrier+drug, • group II: treatment: carrier+drug+NEM.
The drug is administered one hour later, in suspension in the carrier. Animals are sacrificed after 24 hours and evaluation of the damage to the gastrointestinal mucosa is made by counting the number of rats, inside each group, with lesions to the stomach at a visual inspection. The total number of said rats is then divided by the total number of rats of the group and multiplied by 100.

Data set [4] deals with gastrointestinal mucosa, GPT, blood pressure. The following applies: rat, in vivo. Here is the method: The endothelial dysfunction is evaluated by determining the damage to the gastrointestinal mucosa, the hepatic damage and blood hypertension induced by administration of L-NAME.
The animals (rats) are divided in groups as herein below shown. The group receiving L-NAME is treated for 4 weeks with said compound dissolved at a concentration of 400 mg/litre in drinking water. The following groups are constituted (No. 10 animals for group):
• 1° group: only carrier (aqueous suspension 1% w/v of carboxymethylcellulose, dose: 5 ml/Kg when the drug is administered by os, phisiologic solution when administered parenterally), • 2° group: carrier+L-NAME, B) Groups Administered with the Drug: • 3° group: carrier+drug, • 4° group: carrier+drug+L-NAME.
The administration routes are those known for the drug, and can be the oral or subcutaneous, intraperiteneal, intravenous or intramuscular route. […] The drug is administered once a day for 4 weeks.
At the end of the four weeks treatment access to water is prevented and after 24 hours the animals are sacrificed.
One hour before the sacrifice blood-pressure is determined, and a blood pressure increase is taken as an evaluation of the damage to vascular endothelium. […] The hepatic damage is determined by evaluation of the glutamic-pyruvic transaminase (GPT increase) after sacrifice.
Test 3-Experimental in Vivo Model with N^w-nitro-L-arginine-methyl ester (L-NAME): Gastric Tolerability (Gastrointestinal Damage Incidence), Hepatic (GPT Dosage, Glutamic-pyruvic Transaminase) and Cardiovascular (Blood Pressure) Tolerability of Some Drugs Screened as Precursors of the Compounds of the Invention.
The endothelial dysfunction is evaluated by determining the damage induced by L-NAME administration to the gastrointestinal mucosa, the hepatic damage (GPT increase), and the vascular endothelium or cardiovascular damage as blood hypertension.
The animals (rats, average weight 200 g) are divided in groups as herein below described. The group receiving L-NAME is treated for 4 weeks with said compound dissolved at the concentration of 400 mg/litre in drinking water. The following groups (No. 10 animals for group) are constituted:
• 1° group: treatment: only carrier (aqueous suspension 1% w/v of carboxymethylcellulose, dose: 5 ml/Kg when the drug is administered by os, physiologic solution when by parenteral route), • 2° group: treatment: carrier+L-NAME, B) Groups Treated with the Drug: • 3° group: treatment: carrier+drug, • 4° group: treatment: carrier+drug+L-NAME.
Each drug is administered once a day for 4 weeks.
At the end of the four weeks access to water is prevented and after 24 hours the animals are sacrificed.
One hour before the sacrifice blood pressure is determined and a blood pressure increase is taken as an indication of a damage being occurred to vascular endothelium.
The hepatic damage is determined by evaluation after the sacrifice of the glutamic-pyruvic transaminase (GPT increase).
The % gastric lesions have been determined as in Test 1.

In the case of `CC(C(=O)N1CSCC1C(=O)OCCCCO[N+](=O)[O-])c1ccc(-c2ccccc2)c(F)c1` (stereo not drawn) [Example 1, 3-[2-fluoro-α-methyl-(1,1′-biphenyl)-4-acetyl]thiazolidin-4-carboxylic acid 4-(nitroxy)butyl ester], the Gastropathy % incidence in data set [1] was 0%.

For `CCCCC(C)(O)C/C=C/[C@H]1[C@H](O)CC(=O)[C@@H]1CCCCCCC(=O)OC` (mixture of isomers) [Misoprostol], the “maximum tolerated dose (dose (mg/Kg)/admin. route)” value in data set [2] is on record as 0.5/s.c. mg/Kg. Further, in data set [3] (NEM 25 mg/kg s.c. one hour before drug at maximum tolerated dose), the “Gastro-enteropathy (% incidence) with NEM” value was determined as 0%. In addition, the “Gastro-enteropathy (% incidence) without NEM” value in data set [3] (single maximum tolerated dose, without NEM) came to 0%. Moreover, in data set [4], the “GPT % without L-NAME” value was found to be 100%. The “Gastroenteropathy % without L-NAME” value in data set [4] (4 weeks) worked out at 0%.
